1 compound from paper PMC3428910 (Bioorganic & medicinal chemistry letters, 2006) can be followed below.

Each structure is given as a SMILES string.

The experiment addresses T1, human glutathione reductase (hGR) (Homo sapiens, UniProt P00390).
T1 sequence (P00390 44-522): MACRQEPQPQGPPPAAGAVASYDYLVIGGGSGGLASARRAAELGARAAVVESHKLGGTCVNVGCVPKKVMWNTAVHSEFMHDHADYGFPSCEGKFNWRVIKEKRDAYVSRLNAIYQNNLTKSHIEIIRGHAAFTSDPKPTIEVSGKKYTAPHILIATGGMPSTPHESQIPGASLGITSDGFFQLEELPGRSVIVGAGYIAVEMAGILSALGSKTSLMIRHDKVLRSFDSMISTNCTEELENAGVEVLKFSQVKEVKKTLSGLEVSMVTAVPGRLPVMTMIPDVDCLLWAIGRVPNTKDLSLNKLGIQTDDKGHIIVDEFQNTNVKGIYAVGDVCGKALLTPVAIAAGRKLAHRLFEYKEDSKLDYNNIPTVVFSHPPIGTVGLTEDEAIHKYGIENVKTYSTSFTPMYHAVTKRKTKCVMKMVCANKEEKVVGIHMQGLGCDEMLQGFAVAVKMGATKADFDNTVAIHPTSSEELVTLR
Kind of experiment: Human glutathione reductase inhibition. Format: biochemical. Particulars: GR IC50/TR IC50.

Take `CC(C)(C)c1cc(CN2CCCCCC2)cc(C(C)(C)C)c1O` [Compound 7c]: the “Selectivity for TR” value was more than 4.
